# Tests used:
# HCMV strain AD169 = assay: HCMV plaque reduction (inhibition of virus replication in cell culture); format: cell-based, human cytomegalovirus; details: for IC50: Human betaherpesvirus 5, MRC5, HCMV strain AD169, plaque formation, MRC-5 cells, read-out: IC50 = 50% Inhibitory Concentration of HCMV strain AD169 induced plaque formation in MRC-5 Cells
# From the text: All materials required for this testing are commercially available. The testing method described is well documented in the literature, see, e.g. Colacino, J M and Lopez C., 1983, “Efficacy and selectivity of some nucleoside analogs as anti-human cytomegalovirus agents.” Antimicrob. Agents Chemother. 24:505-508; Colacino, J M and Lopez C., 1985, “Antiviral activity of 2′-deoxy-2′-fluoro-beta-D-arabinofuranosyl-5-iodocytosine against human cytomegalovirus in human skin fibroblasts.” Antimicrob. Agents Chemother. 28:252-258; and Mauldin, S C, Paget C J Jr., Jones C D, Colacino J M, Baxter A J, Staschke K A, Johansson N G, and Vrang L., 1998, “Synthesis and antiviral activity of prodrugs of the nucleoside 1-[2′,3′-dideoxy-3′-C-(hydroxymethyl)-beta-D-erythropentofuranosyl] cytosine.” Bioorg. Med Chem. 6:577-585.
# Human fibroblast cells, foreskin or fetal lung cells, are infected with human cytomegalovirus. The cells are incubated with standard cell culture media containing no or increasing concentrations of ALIMTA. […] Additionally the yield of virus produced in the non-treated infected cell control cultures is compared to the yield of virus produced in the treated infected cell cultures.
# The percent inhibition of virus replication can be determined and the concentration of molecule required to inhibit viral replication by 50% (IC50) and 90% (IC90) can be calculated using linear regression analysis.
# in vitro = format: cell-based; details: human
SMILES,Comments (HCMV screening summary) (HCMV strain AD169; HCMV strain AD169 in MRC-5 cells),IC50 (HCMV strain AD169) [µM],"TI (Therapeutic Index) = TC50/IC50 (HCMV strain AD169; TC50 (MRC-5) / IC50 (HCMV AD169 plaque formation), called selective index in text)",CC50 (in vitro) [µM]
"Nc1nc2[nH]cc(CCc3ccc(C(=O)N[C@@H](CCC(=O)[O-])C(=O)[O-])cc3)c2c(=O)[nH]1.[Na+].[Na+] [ALIMTA, disodium N-[4-[2-(2-amino-4,7-dihydro-4-oxo-3H-pyrrolo[2,3-d]-pyrimidin-5-yl)ethyl]benzoyl]-L-glutamic acid salt]",High activity,0.29,>344.8,> 100
Nc1nc(O)c2ncn(COC(CO)CO)c2n1 [Ganciclovir],–,6.37,–,> 100
